# Test results reported in paper PMC9081086, “Stapling strategy enables improvement of antitumor activity and proteolytic stability of host-defense peptide hymenochirin-1B” (RSC Advances, 2018).
# Assay: all-hydrocarbon stapling by ring-closing olefin metathesis between S5/S5 (i,i+4) or R8/S5 (i,i+7) olefinic residues, Grubbs 1st-generation catalyst (10 mM in DCE per text; 6 mM per schemes), 2 x 2 h, on Rink Amide MBHA resin
# Conditions: the molecule shown is the open-chain precursor, 21-membered ring, 1,2-dichloroethane, 35.0 °C, 4.0 h, 60 steps
row,SMILES,"ring closure, overall yield"
1,C=CCCC[C@](C)(NC(=O)CNC(=O)[C@H](CCCCNC(=O)OC(C)(C)C)NC(=O)[C@@H](NC(=O)[C@H](C)NC(=O)CNC(=O)[C@H](CCCCNC(=O)OC(C)(C)C)NC(=O)[C@H](CC(C)C)NC(=O)[C@@H](NC(=O)[C@H](CCCCNC(=O)OC(C)(C)C)NC(=O)[C@H](CCCCNC(=O)OC(C)(C)C)NC(=O)[C@H](CC(C)C)NC(=O)[C@H](CC(=O)NC(c1ccccc1)(c1ccccc1)c1ccccc1)NC(=O)[C@H](CC(=O)OC(C)(C)C)NC(=O)[C@H](CCCCNC(=O)OC(C)(C)C)NC(=O)[C@@H](NC(=O)[C@H](CCC(=O)OC(C)(C)C)NC(=O)[C@@H]1CCCN1C(=O)[C@H](COC(C)(C)C)NC(=O)[C@H](CC(C)C)NC(=O)[C@H](CCCCNC(=O)OC(C)(C)C)NC(=O)[C@@H](NC(=O)OCC1c2ccccc2-c2ccccc21)[C@@H](C)CC)[C@@H](C)OC(C)(C)C)C(C)C)[C@@H](C)CC)C(=O)N[C@H](C(=O)N[C@@H](C)C(=O)N[C@H](C(=O)N[C@@](C)(CCCC=C)C(=O)N[C@@H](CCCCNC(=O)OC(C)(C)C)C(=O)N[C@@H](CCSC)C(=O)N[C@H](C(N)=O)C(C)C)C(C)C)[C@@H](C)CC,13.1%
2,C=CCCC[C@](C)(NC(=O)CNC(=O)[C@H](CCCCNC(=O)OC(C)(C)C)NC(=O)[C@@H](NC(=O)[C@](C)(CCCC=C)NC(=O)CNC(=O)[C@H](CCCCNC(=O)OC(C)(C)C)NC(=O)[C@H](CC(C)C)NC(=O)[C@@H](NC(=O)[C@H](CCCCNC(=O)OC(C)(C)C)NC(=O)[C@H](CCCCNC(=O)OC(C)(C)C)NC(=O)[C@H](CC(C)C)NC(=O)[C@H](CC(=O)NC(c1ccccc1)(c1ccccc1)c1ccccc1)NC(=O)[C@H](CC(=O)OC(C)(C)C)NC(=O)[C@H](CCCCNC(=O)OC(C)(C)C)NC(=O)[C@@H](NC(=O)[C@H](CCC(=O)OC(C)(C)C)NC(=O)[C@@H]1CCCN1C(=O)[C@H](COC(C)(C)C)NC(=O)[C@H](CC(C)C)NC(=O)[C@H](CCCCNC(=O)OC(C)(C)C)NC(=O)[C@@H](NC(=O)OCC1c2ccccc2-c2ccccc21)[C@@H](C)CC)[C@@H](C)OC(C)(C)C)C(C)C)[C@@H](C)CC)C(=O)N[C@H](C(=O)N[C@@H](C)C(=O)N[C@H](C(=O)N[C@@H](C)C(=O)N[C@@H](CCCCNC(=O)OC(C)(C)C)C(=O)N[C@@H](CCSC)C(=O)N[C@H](C(N)=O)C(C)C)C(C)C)[C@@H](C)CC,19.9%
3,C=CCCC[C@](C)(NC(=O)[C@@H](NC(=O)[C@H](C)NC(=O)CNC(=O)[C@H](CCCCNC(=O)OC(C)(C)C)NC(=O)[C@H](CC(C)C)NC(=O)[C@@H](NC(=O)[C@H](CCCCNC(=O)OC(C)(C)C)NC(=O)[C@H](CCCCNC(=O)OC(C)(C)C)NC(=O)[C@H](CC(C)C)NC(=O)[C@H](CC(=O)NC(c1ccccc1)(c1ccccc1)c1ccccc1)NC(=O)[C@H](CC(=O)OC(C)(C)C)NC(=O)[C@H](CCCCNC(=O)OC(C)(C)C)NC(=O)[C@@H](NC(=O)[C@H](CCC(=O)OC(C)(C)C)NC(=O)[C@@H]1CCCN1C(=O)[C@H](COC(C)(C)C)NC(=O)[C@H](CC(C)C)NC(=O)[C@H](CCCCNC(=O)OC(C)(C)C)NC(=O)[C@@H](NC(=O)OCC1c2ccccc2-c2ccccc21)[C@@H](C)CC)[C@@H](C)OC(C)(C)C)C(C)C)[C@@H](C)CC)C(=O)NCC(=O)N[C@@H](C)C(=O)N[C@H](C(=O)N[C@@](C)(CCCC=C)C(=O)N[C@H](C(=O)N[C@@H](C)C(=O)N[C@@H](CCCCNC(=O)OC(C)(C)C)C(=O)N[C@@H](CCSC)C(=O)N[C@H](C(N)=O)C(C)C)C(C)C)[C@@H](C)CC,14.1%
4,C=CCCC[C@](C)(NC(=O)[C@H](CC(=O)OC(C)(C)C)NC(=O)[C@H](CCCCNC(=O)OC(C)(C)C)NC(=O)[C@@H](NC(=O)[C@](C)(CCCC=C)NC(=O)[C@@H]1CCCN1C(=O)[C@H](COC(C)(C)C)NC(=O)[C@H](CC(C)C)NC(=O)[C@H](CCCCNC(=O)OC(C)(C)C)NC(=O)[C@@H](NC(=O)OCC1c2ccccc2-c2ccccc21)[C@@H](C)CC)[C@@H](C)OC(C)(C)C)C(=O)N[C@@H](CC(C)C)C(=O)N[C@@H](CCCCNC(=O)OC(C)(C)C)C(=O)N[C@@H](CCCCNC(=O)OC(C)(C)C)C(=O)N[C@H](C(=O)N[C@@H](CC(C)C)C(=O)N[C@@H](CCCCNC(=O)OC(C)(C)C)C(=O)NCC(=O)N[C@@H](C)C(=O)N[C@H](C(=O)N[C@@H](CCCCNC(=O)OC(C)(C)C)C(=O)NCC(=O)N[C@@H](C)C(=O)N[C@H](C(=O)N[C@@H](C)C(=O)N[C@H](C(=O)N[C@@H](C)C(=O)N[C@@H](CCCCNC(=O)OC(C)(C)C)C(=O)N[C@@H](CCSC)C(=O)N[C@H](C(N)=O)C(C)C)C(C)C)[C@@H](C)CC)[C@@H](C)CC)C(C)C,6.43%
5,C=CCCC[C@](C)(NC(=O)[C@H](CCCCNC(=O)OC(C)(C)C)NC(=O)[C@@H](NC(=O)[C@H](CCC(=O)OC(C)(C)C)NC(=O)[C@](C)(CCCC=C)NC(=O)[C@H](COC(C)(C)C)NC(=O)[C@H](CC(C)C)NC(=O)[C@H](CCCCNC(=O)OC(C)(C)C)NC(=O)[C@@H](NC(=O)OCC1c2ccccc2-c2ccccc21)[C@@H](C)CC)[C@@H](C)OC(C)(C)C)C(=O)N[C@@H](CC(=O)NC(c1ccccc1)(c1ccccc1)c1ccccc1)C(=O)N[C@@H](CC(C)C)C(=O)N[C@@H](CCCCNC(=O)OC(C)(C)C)C(=O)N[C@@H](CCCCNC(=O)OC(C)(C)C)C(=O)N[C@H](C(=O)N[C@@H](CC(C)C)C(=O)N[C@@H](CCCCNC(=O)OC(C)(C)C)C(=O)NCC(=O)N[C@@H](C)C(=O)N[C@H](C(=O)N[C@@H](CCCCNC(=O)OC(C)(C)C)C(=O)NCC(=O)N[C@@H](C)C(=O)N[C@H](C(=O)N[C@@H](C)C(=O)N[C@H](C(=O)N[C@@H](C)C(=O)N[C@@H](CCCCNC(=O)OC(C)(C)C)C(=O)N[C@@H](CCSC)C(=O)N[C@H](C(N)=O)C(C)C)C(C)C)[C@@H](C)CC)[C@@H](C)CC)C(C)C,11.4%
6,C=CCCC[C@](C)(NC(=O)[C@H](CCCCNC(=O)OC(C)(C)C)NC(=O)[C@H](CC(C)C)NC(=O)[C@@H](NC(=O)[C@H](CCCCNC(=O)OC(C)(C)C)NC(=O)[C@H](CCCCNC(=O)OC(C)(C)C)NC(=O)[C@H](CC(C)C)NC(=O)[C@H](CC(=O)NC(c1ccccc1)(c1ccccc1)c1ccccc1)NC(=O)[C@H](CC(=O)OC(C)(C)C)NC(=O)[C@H](CCCCNC(=O)OC(C)(C)C)NC(=O)[C@@H](NC(=O)[C@H](CCC(=O)OC(C)(C)C)NC(=O)[C@@H]1CCCN1C(=O)[C@H](COC(C)(C)C)NC(=O)[C@H](CC(C)C)NC(=O)[C@H](CCCCNC(=O)OC(C)(C)C)NC(=O)[C@@H](NC(=O)OCC1c2ccccc2-c2ccccc21)[C@@H](C)CC)[C@@H](C)OC(C)(C)C)C(C)C)C(=O)N[C@@H](C)C(=O)N[C@H](C(=O)N[C@@H](CCCCNC(=O)OC(C)(C)C)C(=O)N[C@@](C)(CCCC=C)C(=O)N[C@@H](C)C(=O)N[C@H](C(=O)N[C@@H](C)C(=O)N[C@H](C(=O)N[C@@H](C)C(=O)N[C@@H](CCCCNC(=O)OC(C)(C)C)C(=O)N[C@@H](CCSC)C(=O)N[C@H](C(N)=O)C(C)C)C(C)C)[C@@H](C)CC)[C@@H](C)CC,18.5%
